What was measured:
[1] = system: COX (PGE2 and TXB2 synthesis); test: LPS-induced prostanoid (PGE2, TXB2) synthesis in human monocytes; format: cell-based; conditions: LPS 200 ng/mL, 18 hrs, data at 10 μM
Protocol: Human peripheral blood monocytes were isolated from buffy coats by lymphoprep gradient separation followed by counter-current centrifugal elutriation. Test compounds were dissolved in DMSO and added to fresh monocytes to achieve concentrations of 0, 10 and 100 μM. After 30 min, lipopolysaccharide (LPS) was added to achieve a final concentration of 200 ng/mL. After incubation for 18 hrs at 37° C. in 5% CO2, supernatants were removed and PGE2 and TXB2 (the stable hydrolysis product of TXA2) production were measured by radioimmunoassay (RIA). ANOVA followed by Newman-Keuls multiple comparisons test was used to examine differences between doses and the control values.

5-LO (LTB4 synthesis) = test: Synthesis of LTB4 and metabolites by neutrophils (lipoxygenase); format: cell-based; conditions: Neutrophil; calcium ionophore-stimulated human neutrophils
Protocol: The pathway for LTB4 synthesis involves initial release of AA from phospholipids by a Ca-dependent PLA2. The free AA is then oxygenated at by 5-LO (requiring enzyme activation by FLAP) to generate an epoxide intermediate (LTA4). LTA4 is then converted to LTB4 by LTA4 hydrolase. LTB4 is metabolised (and deactivated) by a cytochrome P-(CYP) 450 […] to produce 20-hydroxy and 20-carboxy metabolites. These metabolites are also measured in the HPLC assay.
Neutrophils were isolated from citrated human venous blood to >90% purity by centrifugation through Ficoll, dextran sedimentation and lysis of erythrocytes. Cells were washed in HEPES buffered Hanks solution (HBHS) and then suspended at 4.5 million cells/mL in HBHS containing 0.1% bovine serum albumin (HBHS+BSA).
Experiments had been carried out previously to optimise the stimulation of neutrophils by calcium ionophore. At 37° C., cells were incubated with the test compound in 10 μL DMSO for 5 min before addition of 100 μL of 25 ng/μL calcium ionophore (free acid form, Sigma) with 0.5% DMSO in HBHS+BSA. The cells were incubated for 10 min then pelleted by centrifugation at 4° C. for 5 min and the cell free supernatant used to quantitate the levels of LTB4 and its metabolites.
To each 900 μL aliquot of the supernatant, 25 μL of prostaglandin B2 (PGB2) 2.5 ng/μL in ethanol was added as internal standard. The solution was acidified to pH≦3 with 2M formic acid and the mixture extracted with 2 mL ethyl acetate and vigorous vortexing. The organic layer was collected and dried under nitrogen in a glass vial before reconstituted in 50 μL of the reconstitution solution (water:methanol:acetonitrile at 2:1:1).
Analysis was carried out using an HPLC system with a 125-4 LiChrospher®100 RP-18 (5 μm) column (Agilent Technologies) and a gradient system adapted from a published method to separate LTB4, its oxidation products 20-hydroxy LTB4 (20-OH-LTB4) and 20-carboxy LTB4 (20-COOH-LTB4), as well as PGB2. At 1 ml/min flow rate, a combination of three different mobile phase solutions was used:
A (water:methanol:acetonitrile:trifluoroacetic acid at 80:40:40:0.1, pH=3 with Et3N), B (methanol:acetonitrile at 1:1), and C (methanol).
UV absorbance was monitored at 270 nm, and LTB4 and its metabolites were quantitated by comparison of peak areas with that of internal standard and a standard curve prepared earlier.

TNFα = test: LPS-induced TNFα synthesis in RAW 264.7 murine macrophages; format: cell-based, mouse; conditions: 10 μM; RAW 264.7, LPS
Protocol: Subconfluent RAW 264.7 cells were seeded into 24-well plates at 5×10^5 cells per well and allowed to adhere for 1 hr. Cells were then treated either test compound (in 0.025% DMSO) or vehicle alone, and incubated for 1 hr. LPS 50 ng/ml (LPS—Sigma-Aldrich) was then added. After incubation for 16 hrs, culture media was collected and stored at −80° C. TNFα measurement using an ELISA (Becton Dickinson).

IL-6 = IL-6 production by murine splenocytes; format: cell-based, mouse; conditions: 10 μM; Con A
Protocol: Male Skh-1 (hairless) mice, approximately six weeks old were killed by cervical dislocation. Single cell suspensions were made from the spleen and erythrocytes were lysed in buffer (0.14M NH4Cl, 17 mM Tris, pH 7.2). The remaining splenocytes were cultured in RPMI-1640 (Gibco) supplemented with 10% (v:v) FBS, 2 mM L-glutamine, pen/strep and 50 μM 2-mercaptoethanol. Splenocytes were added to quadruplicate wells containing either the T cell mitogen concanavalin A (Con A, Sigma-Aldrich—0. 4 μg/well), the B-cell mitogen LPS (Sigma-Aldrich—1 μg/well) or no mitogen, as well as test compound at a concentration of 10 μM in DMSO. Samples were analysed after a 3 day incubation at 37° C. in 5% CO2 in air. Cell viability was assessed by adding MTT to each well, incubating for a further 4 hrs and then developing colour with 0.04N HCl in isopropanol. Supernatant samples were frozen at −80° C. and IL-6, IFN-γ and TNFα were detected in triplicate using ELISA kits (BD Biosciences).

[2] = system: BALB/c mice (AA-induced ear swelling); test: Murine ear inflammation assay, AA-induced ear swelling; format: in vivo, mouse; conditions: 25 mg/kg i/p; for % Change compared with vehicle / Change in ear thickness (mean ± SD, ×0.01 mm): AA, 1 hr post-AA
Protocol: Female BALB/c mice (ARC, WA, Australia), weighing 15-21 g, and maintained on an isoflavone-free diet (Gordon's Specialty Stock Foods, Yanderra, NSW) for at least seven days, were randomised into test groups of five or six. To reduce animal use, mice had ear swelling induced by applying AA (Sigma, Steinheim, Germany) initially, and then by phorbol 12-Myristate 13-acetate (PMA—Sigma, Mo., USA) one week later.
Test compounds were dissolved in polyethylene glycol (PEG) 400 (Sigma, St. Louis, Mo., USA):phosphate buffered saline 1:1 and injected intraperitoneally (i/p) at a dose of 25 mg/kg either 30 min prior to AA treatment or 1 hr prior to PMA treatment. Mice were anaesthetised using isoflurane (Veterinary Companies of Australia Pty Ltd, NSW, Australia) and baseline thickness of both ears was measured using a spring micrometer (Interapid, Zurich, Switzerland). Each mouse received a total of 20 μL of either AA in ethanol (50 mg/ml) or PMA in acetone (0.2 mg/ml) applied to the inner and outer surfaces of each pinna (i.e. 5 μL per ear surface). Mice were anaesthetised again to remeasure the ears at 1 hr post-AA application or at 5 hr post-PMA application.
The difference in ear swelling pre- and post-application of inflammogen for each ear was calculated. The difference in mean swelling of each test group compared to the group given vehicle alone was calculated using a two-tailed unpaired t-test (Prism 4, Graphpad Software).

Row | Compound | COX inhibitory activity (inhibition of PGE2 and TXA2 production) [1] | IC50 (5-LO (LTB4 synthesis)) [µM] | synthesis of TNFα (TNFα) | IL-6 production in T cells (IL-6) | ear oedema caused by the application of AA [2] | % Change compared with vehicle [2] [%] | Change in ear thickness (mean ± SD, ×0.01 mm) [2] [×0.01 mm]
1 | COc1ccc(C2=Cc3ccc(O)c(C)c3OC2)cc1OC [Cpd. 19, 7-Hydroxy-3′,4′-dimethoxy-8-methylisoflav-3-ene] | significant COX inhibitory activity | 0.3 | inhibited | reduced | significant reduction | −34 | 9.3 ± 3.9
2 | COc1ccc(C2=Cc3ccc(O)cc3OC2)cc1OC [Cpd. 18, 7-Hydroxy-3′,4′-dimethoxyisoflav-3-ene] | significant COX inhibitory activity | 0.5 | inhibited | reduced | significant reduction | −40 | 8.4 ± 3.7
3 | Oc1ccc(C2=Cc3ccc(O)c(Br)c3OC2)cc1 [Cpd. 20, 4′,7-Dihydroxy-8-bromoisoflav-3-ene] | significant COX inhibitory activity | 0.9 | tended to do so | most marked |  | −11 | 14.4 ± 6.1
4 | Oc1ccc2c(c1)OCC(c1ccc(Br)cc1)=C2 [Cpd. 21, 4′-Bromo-7-hydroxyisoflav-3-ene] |  |  | inhibited |  |  | −11 | 14.4 ± 5.1
5 | COc1cccc(C2=Cc3ccc(O)cc3OC2)c1 [Cpd. 16, 7-Hydroxy-3′-methoxyisoflav-3-ene] | significant COX inhibitory activity | 2.2 | tended to do so | reduced | significant reduction | −29 | 11.6 ± 2.9
6 | Cc1c(O)ccc2c1OCC(c1cccc(O)c1)=C2 [Cpd. 14, 3′,7-Dihydroxy-8-methylisoflav-3-ene] | significant COX inhibitory activity | < 0.1 | tended to do so |  | significant reduction | −34 | 10.7 ± 2.9

Reference: patent US20090233999A1, “COMPOSITIONS AND THERAPEUTIC METHODS INVOLVING ISOFLAVONES AND ANALOGUES THEREOF” (NOVOGEN RESEARCH PTY LTD, priority 1999, published 2009)
